# According to patent publication US20180207165A1, “METHODS AND COMPOSITIONS FOR STIMULATING BENEFICIAL BACTERIA IN THE GASTROINTESTINAL TRACT” (Rijksuniversiteit Groningen, priority 2012, published 2018):
# Columns and labels:
# F. prausnitzii = assay: Stability of F. prausnitzii synbiotic formulations after exposure to ambient air (CFU count); parameters: species or system Faecalibacterium prausnitzii; settings: ingredient in lyophilized formulation
# Description: To produce a formulation with living faecalibacteria that are stable for at least 24 h under aerobic conditions, series of experiments were performed with different combinations of ingredients. Faecalibacteria were grown overnight in broth culture medium, centrifuged and the pellet was washed with anaerobic phosphate buffered saline (PBS) and centrifuged again. The mixtures were frozen at −20° C. and subsequently lyophilized.
# After lyophilizing, the formulations were exposed to air for the indicated time periods. The preparations were re-suspended in phosphate buffer and a 10 fold-dilution series was plated on anaerobic growth medium agar. The Colony-forming units were counted and compared with a non exposed t=0 time point.
# The lyophilized granules obtained according to step 2 were stored in air tight containers under ambient aerobic conditions. For stability and viability studies granules were exposed to the ambient air at defined period up to 24 h. After aerobic exposures the granules were processed anaerobically under anaerobic tent. The granules were diluted and rehydrated in oxygen free phosphate buffered saline (pH 7.2) supplemented with 0.05% cysteine and ten-fold dilution series were plated on YCFAG agar medium. Colony forming units were determined by counting the colonies formed on the agar plates after 24 h of incubations at 37° C.
# [1] = system: Faecalibacterium prausnitzii; assay: Riboflavin intervention trial: FISH count of F. prausnitzii in fecal samples; format: in vivo, human
# Description: (§1) A human intervention study was performed to investigate the effect of riboflavin on the numbers of Faecalibacterium prausnitzii in the gut. A group of 8 volunteers (body weight 60 to 90 kg) were asked to take 1 oral dose of 100 mg riboflavin supplement per day for 14 days.
# (§2) Two samples were taken in a period of two weeks before the intake, as baseline samples, two samples (one per week) were taken during the intake and one sample a week after intake. The number of F. prausnitzii and that of other bacterial groups were determined by FISH with a specific probes as describe before (Harmsen et al. Appl Environ Microbiol. 2002 June; 68(6):2982-90). The numbers of faecalibacteria of the samples taken before and during the intake were averaged and all samples were plotted in FIG. 1.
# Enterococci = assay: Riboflavin intervention trial: count of Enterococci in fecal samples; format: in vivo, human; settings: during the intervention, 100 mg/day riboflavin
# Description: as §1, §2
# [2] = Butyrate production in human volunteers on oral riboflavin; format: in vivo; settings: orally administered riboflavin
# [3] = system: Enterobacteriaceae, E. coli-like bacteria; assay: Riboflavin intervention trial: count of E. coli-like bacteria in fecal samples; format: in vivo, human
# Description: as §1, §2
# Clostridium group XIVa = assay: Riboflavin intervention trial: FISH count of Clostridium group XIVa in fecal samples; format: in vivo, human; settings: 8 volunteers, 100 mg/day oral riboflavin for two weeks
# Description: as §1, §2
compound,measurement,setting,value
O=C1O[C@H]([C@@H](O)CO)C(O)=C1O [ascorbic acid],protective effect on faecalibacteria against ambient air exposure,F. prausnitzii,not observed
N[C@@H](CS)C(=O)O [cysteine],protective effect on faecalibacteria against ambient air exposure,F. prausnitzii,provide the protective effect
O=c1c(O)c(-c2ccc(O)c(O)c2)oc2cc(O)cc(O)c12 [quercitin],protective effect on faecalibacteria against ambient air exposure,F. prausnitzii,not observed
Cc1cc2nc3c(=O)[nH]c(=O)nc-3n(C[C@H](O)[C@H](O)[C@H](O)CO)c2cc1C [riboflavin],percentage F. prausnitzii of the total bacteria,"[1]; 8 volunteers, 100 mg/day oral riboflavin for 14 days, feces",increased in 7 out of 8 samples
same,number of faecalibacteria in fecal samples,"[1]; 8 volunteers, 1 oral dose of 100 mg riboflavin per day for 14 days, pre, during, post intake, FISH",increased during intake and decreased again when the intake ceases
same,ratio faecalibacteria/Clostridium group XIVa,"[1]; calculated from before and from during intake, 100 mg/day riboflavin",increased in all cases
same,protective effect on faecalibacteria against ambient air exposure,F. prausnitzii,provide the protective effect
same,number of Enterococci in fecal samples,Enterococci,did not increase during the intervention
same,butyrate production,[2],enhanced
same,number of E. coli(-like bacteria) in fecal samples,"[3]; during riboflavin intake, 100 mg/day for two weeks, all individuals tested",decreased or remained the same
same,ratio of faecalibacteria to E. coli-like bacteria,"[3]; upon administration of riboflavin, 100 mg/day",the ratio shifted towards faecalibacteria
same,number of Clostridium group XIVa bacteria in fecal samples,Clostridium group XIVa,did not increase
